# Measured values published in PMC7765794 (Nutrients, 2020).
# Experiments:
# HL-60 cells = assay: Cell viability (trypan blue), acridine orange staining and DNA fragmentation in HL-60 cells; type: cell-based, human; settings: for apoptosis in HL-60 cells (apoptotic bodies, DNA fragmentation): 50 μM baicalein or up to 75 µM myricetin, 24 h; for IC50: Homo sapiens, HL-60, after 24 h, viable cell count
# Experimental: The human promyelocytic leukemia HL-60 and human acute Jurkat T cell leukemia cell lines were grown in 90% RPMI 1640 medium supplemented with 10% fetal bovine serum (FBS) at a temperature of 37 °C under a humidified 5% CO2 atmosphere. These cell lines were approved by short tandem repeat profiling, and the cells were passaged for no more than 2 months. Cells (2 × 10^6/mL) were seeded into 60-mm Petri dishes and incubated at 37 °C. The cells were harvested by treatment with 5 µM rottlerin. Viable cells were counted using the trypan blue exclusion method. The cell suspension was mixed on a slide with an equal volume of acridine orange solution (10 mg/mL). Green fluorescence was detected between 500 and 525 nm with a fluorescence microscope (Zeiss, Oberkochen, Germany). Cells were harvested and lysed overnight in digestion buffer (0.5% sarkosyl, 0.5 mg/mL proteinase K, 50 mM Tris-HCl, pH 8.0 and 10 mM ethylenediamine tetraacetic acid (EDTA) at 55 °C). Subsequently, cells were treated with 0.5 μg/mL RNase A for 2 h. Genomic DNA was extracted by phenol/chloroform/isoamyl alcohol extraction and analyzed by gel electrophoresis using 2% agarose.
# ODC-WT HL-60 cells = assay: Cell growth and apoptosis in ODC-overexpressing HL-60 cells; type: cell-based, human; settings: for apoptosis in ODC-WT HL-60 cells (in words): 50 μM baicalein or 75 µM myricetin
# Experimental: Cells (2 × 10^6/mL) were seeded into 60-mm Petri dishes and incubated at 37 °C. […] Viable cells were counted using the trypan blue exclusion method. The cell suspension was mixed on a slide with an equal volume of acridine orange solution (10 mg/mL). Green fluorescence was detected between 500 and 525 nm with a fluorescence microscope (Zeiss, Oberkochen, Germany). The ODC-empty vector (pcDNA3-ODC-empty) and ODC-overexpressing vector (pcDNA3-ODC-WT) were transfected into parental HL-60 cells according to calcium phosphate-mediated transfection. Stably transfected cells were selected with the antibiotic G418 (400 μg/mL). After three weeks, the isolated G418-resistant clones were individually selected to analyze the protein expression of ODC in the cells. Cells were harvested and lysed overnight in digestion buffer (0.5% sarkosyl, 0.5 mg/mL proteinase K, 50 mM Tris-HCl, pH 8.0 and 10 mM ethylenediamine tetraacetic acid (EDTA) at 55 °C). Subsequently, cells were treated with 0.5 μg/mL RNase A for 2 h. Genomic DNA was extracted by phenol/chloroform/isoamyl alcohol extraction and analyzed by gel electrophoresis using 2% agarose.
# Jurkat cells = assay: Cell growth and apoptosis in Jurkat cells; type: cell-based, human; settings: for growth of Jurkat cells (in words): 100 µM baicalein or 75 µM myricetin (Figure S5); for apoptosis of Jurkat cells (in words): 100 µM baicalein or myricetin (Figure S5)
# Experimental: The human promyelocytic leukemia HL-60 and human acute Jurkat T cell leukemia cell lines were grown in 90% RPMI 1640 medium supplemented with 10% fetal bovine serum (FBS) at a temperature of 37 °C under a humidified 5% CO2 atmosphere. These cell lines were approved by short tandem repeat profiling, and the cells were passaged for no more than 2 months.
# Cells (2 × 10^6/mL) were seeded into 60-mm Petri dishes and incubated at 37 °C. The cells were harvested by treatment with 5 µM rottlerin. Viable cells were counted using the trypan blue exclusion method. The cell suspension was mixed on a slide with an equal volume of acridine orange solution (10 mg/mL). Green fluorescence was detected between 500 and 525 nm with a fluorescence microscope (Zeiss, Oberkochen, Germany).
# Cells were harvested and lysed overnight in digestion buffer (0.5% sarkosyl, 0.5 mg/mL proteinase K, 50 mM Tris-HCl, pH 8.0 and 10 mM ethylenediamine tetraacetic acid (EDTA) at 55 °C). Subsequently, cells were treated with 0.5 μg/mL RNase A for 2 h. Genomic DNA was extracted by phenol/chloroform/isoamyl alcohol extraction and analyzed by gel electrophoresis using 2% agarose.
# (C) and (D) Apoptotic bodies […]
# (1 picture or pasted object on this page, not shown here)
# ODC-empty HL-60 cells = assay: Cell growth and apoptosis in HL-60 cells with ODC-empty vector; type: cell-based, human; settings: 50 μM baicalein or 75 µM myricetin; for cell growth of ODC-empty HL-60 cells (in words): 24 h
# Experimental: Cells (2 × 10^6/mL) were seeded into 60-mm Petri dishes and incubated at 37 °C. The cells were harvested by treatment with 5 µM rottlerin. Viable cells were counted using the trypan blue exclusion method. The cell suspension was mixed on a slide with an equal volume of acridine orange solution (10 mg/mL). Green fluorescence was detected between 500 and 525 nm with a fluorescence microscope (Zeiss, Oberkochen, Germany). The ODC-empty vector (pcDNA3-ODC-empty) and ODC-overexpressing vector (pcDNA3-ODC-WT) were transfected into parental HL-60 cells according to calcium phosphate-mediated transfection. Stably transfected cells were selected with the antibiotic G418 (400 μg/mL). After three weeks, the isolated G418-resistant clones were individually selected to analyze the protein expression of ODC in the cells. Cells were harvested and lysed overnight in digestion buffer (0.5% sarkosyl, 0.5 mg/mL proteinase K, 50 mM Tris-HCl, pH 8.0 and 10 mM ethylenediamine tetraacetic acid (EDTA) at 55 °C). Subsequently, cells were treated with 0.5 μg/mL RNase A for 2 h. Genomic DNA was extracted by phenol/chloroform/isoamyl alcohol extraction and analyzed by gel electrophoresis using 2% agarose.
# human ODC = target: T1, human ODC (Homo sapiens, UniProt P11926); assay: ODC enzyme activity assay and inhibition study (CO2-L3K coupled spectrophotometric assay); type: biochemical; settings: for IC50: purified human ODC, 37 °C, 10 mM ornithine, 0.2 mM PLP, n = 3, read-out: IC50 to ornithine decarboxylase (ODC);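 on all read-outs here: His-tagged human ODC expressed in Escherichia coli, activity followed as decarboxylation coupled via PEP carboxylation and malate formation to NADH analog oxidation, absorbance drop at 405 nm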
# T1 construct: His-tag (N); made in house; host or cells: Escherichia coli JM109
# T1 sequence (P11926 1-461): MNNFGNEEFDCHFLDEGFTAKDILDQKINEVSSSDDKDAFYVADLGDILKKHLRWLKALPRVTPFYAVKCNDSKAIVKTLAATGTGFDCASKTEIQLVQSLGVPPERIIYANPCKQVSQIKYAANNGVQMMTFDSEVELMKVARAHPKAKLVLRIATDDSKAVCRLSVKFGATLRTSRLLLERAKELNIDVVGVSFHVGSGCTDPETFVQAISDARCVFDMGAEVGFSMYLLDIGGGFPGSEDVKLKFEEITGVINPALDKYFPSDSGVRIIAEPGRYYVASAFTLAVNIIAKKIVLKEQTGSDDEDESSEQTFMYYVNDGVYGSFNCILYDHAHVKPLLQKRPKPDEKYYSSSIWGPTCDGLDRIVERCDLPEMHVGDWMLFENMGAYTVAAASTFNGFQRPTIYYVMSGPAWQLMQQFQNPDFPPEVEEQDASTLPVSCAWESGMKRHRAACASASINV
SMILES,"apoptosis in HL-60 cells (apoptotic bodies, DNA fragmentation) (HL-60 cells)",IC50 (HL-60 cells) [µM],cell death / growth suppression in HL-60 cells (in words) (HL-60 cells; baicalein 0–70 μM),apoptosis in ODC-WT HL-60 cells (in words) (ODC-WT HL-60 cells),"cell growth of ODC-WT HL-60 cells (in words) (ODC-WT HL-60 cells; 50 μM baicalein, 24 h)",growth of Jurkat cells (in words) (Jurkat cells),apoptosis of Jurkat cells (in words) (Jurkat cells),apoptosis in ODC-empty HL-60 cells (in words) (ODC-empty HL-60 cells),cell growth of ODC-empty HL-60 cells (in words) (ODC-empty HL-60 cells),IC50 (human ODC) [µM],"Ki (human ODC; with respect to substrate L-ornithine, noncompetitive fit, read-out: Ki(ornithine) against ODC) [µM]"
"O=c1cc(-c2ccccc2)oc2cc(O)c(O)c(O)c12 [Baicalein, 5,6,7-trihydroxyflavone]",exhibited apoptosis,~50,cell death was dose-dependent,normal cell morphology and slight DNA fragmentation,growth arrest,suppressed the growth of Jurkat cells,induced cellular apoptosis with DNA fragmentation,appearance of apoptotic bodies and DNA fragmentation,growth arrest,0.88,0.64 ± 0.18
O=c1c(O)c(-c2cc(O)c(O)c(O)c2)oc2cc(O)cc(O)c12 [Myricetin],induced apoptosis,~75,–,but not in ODC-WT HL-60 cells,–,suppressed the growth of Jurkat cells,induced cellular apoptosis with DNA fragmentation,induced apoptotic bodies in ODC-empty cells,more effective than in ODC-WT HL-60 cells,7.3,–
